One assay has as its target T1, h-e5′NT (Homo sapiens, UniProt P21589).
T1 construct: made in house; host or cells: COS-7 cells, transiently transfected; sonicated extract / membrane fraction
T1 sequence (P21589 27-574): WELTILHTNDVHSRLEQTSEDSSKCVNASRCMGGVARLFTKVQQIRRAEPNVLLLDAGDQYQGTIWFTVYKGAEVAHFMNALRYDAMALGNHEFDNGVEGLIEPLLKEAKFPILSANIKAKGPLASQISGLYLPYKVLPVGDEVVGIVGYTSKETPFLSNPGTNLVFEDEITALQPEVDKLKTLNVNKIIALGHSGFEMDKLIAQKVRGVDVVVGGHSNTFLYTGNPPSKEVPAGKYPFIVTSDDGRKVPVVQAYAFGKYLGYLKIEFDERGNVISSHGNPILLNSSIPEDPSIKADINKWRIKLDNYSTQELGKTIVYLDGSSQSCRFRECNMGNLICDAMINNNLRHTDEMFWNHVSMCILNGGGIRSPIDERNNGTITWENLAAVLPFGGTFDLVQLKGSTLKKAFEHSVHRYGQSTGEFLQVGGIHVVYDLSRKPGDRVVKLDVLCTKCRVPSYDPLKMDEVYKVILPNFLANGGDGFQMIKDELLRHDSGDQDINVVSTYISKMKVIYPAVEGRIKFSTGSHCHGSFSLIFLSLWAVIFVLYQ
Kind of assay: Ecto-5′-nucleotidase inhibition assay (capillary electrophoresis), human enzyme. Type of assay: biochemical. The settings on record: for inhibition at 100 µM: compound at 0.1 mM, read-out: h-e5′NT percentage inhibition ± s.e.m.; for inhibition at 100 µM / IC50: mean ± s.e.m., n = 3; for inhibitory potential toward h-e5′NT after initial screening: initial screening at 0.1 mM; for IC50: substrate AMP 500 µM. The protocol: (§1) The plasmids expressing e5′NT, either rat or human, were used to transfect the COS-7 cells through lipofectamine. The confluent cells were allowed to incubate in DMEM/F-12 having plasmid DNA (6 µg) and transfecting reagent (24 µl) for 5 h at ambient temperature (37°C). To discontinue transfection, a specified volume of DMEM/F-12 was added, containing FBS (20%). These cells were then harvested after 2–3 days.
(§2) The transfected cells were separated from harvesting buffer (45 mM Tris buffer, 95 mM NaCl, and 0.1 mM PMSF, pH 7.5) through scraping, followed by washing with Tris buffer and then allowed to centrifuge by spinning at 300 r.p.m. at 4°C for 5 min [30]. Finally, the cells remained suspended in harvesting buffer solution containing aprotinin (10 µg ml^−1). As a result of sonication, the produced cellular debris was removed by cold centrifugation operated at 300 r.p.m. for 10 min. Glycerol (7.5%) was mixed with the resultant supernatant. The Bradford microplate assay was employed for estimation of protein concentration where albumin was used as a standard.
(§3) The e5′NT inhibition assay was performed with respect to our previously described procedure on P/ACE MDQ capillary electrophoresis system (Beckman Instruments, Fullerton, CA, USA) provided with UV detection system. The samples were prepared in the assay buffer (1 mM CaCl2, 10 mM Tris HCl and 2 mM MgCl2, pH 7.4) and analysed at 0.1 mM concentration. The total assay volume (100 µl) comprises sample (10 µl), 10 µl of h-e5′NT (6.94 µg ml^−1) protein extract or r-e5′NT (7.17 µg ml^−1) and 70 µl of assay buffer. The above mixture was allowed to incubate at 37°C for 10 min. Subsequently, biochemical reaction was started with the addition of substrate (10 µl) and AMP (500 µM). The mixture was incubated again for 30 min at 37°C. The enzyme-substrate reaction was stopped by thermal denaturation for the duration of 20 min by placing the mixture in a water bath at 99°C. Then, 50 µl of obtained mixture was filled into CE mini vials and injected with 0.5 psi into the capillary in 5 s, whereas 15 kV was set to split-up substrate and product peaks. […] Therefore, successive dilution of each active compound was made and different inhibitor concentrations were assayed to obtain the dose–response curve against both enzymes. All experiments were conducted thrice. The nonlinear regression analysis program (PRISM 5.0) was employed to calculate IC50 value.

A further assay has as its target T2, r-e5′NT (Rattus norvegicus, UniProt P21588).
T2 construct: made in house; host or cells: COS-7 cells, transiently transfected; sonicated extract / membrane fraction
T2 sequence (P21588 29-576): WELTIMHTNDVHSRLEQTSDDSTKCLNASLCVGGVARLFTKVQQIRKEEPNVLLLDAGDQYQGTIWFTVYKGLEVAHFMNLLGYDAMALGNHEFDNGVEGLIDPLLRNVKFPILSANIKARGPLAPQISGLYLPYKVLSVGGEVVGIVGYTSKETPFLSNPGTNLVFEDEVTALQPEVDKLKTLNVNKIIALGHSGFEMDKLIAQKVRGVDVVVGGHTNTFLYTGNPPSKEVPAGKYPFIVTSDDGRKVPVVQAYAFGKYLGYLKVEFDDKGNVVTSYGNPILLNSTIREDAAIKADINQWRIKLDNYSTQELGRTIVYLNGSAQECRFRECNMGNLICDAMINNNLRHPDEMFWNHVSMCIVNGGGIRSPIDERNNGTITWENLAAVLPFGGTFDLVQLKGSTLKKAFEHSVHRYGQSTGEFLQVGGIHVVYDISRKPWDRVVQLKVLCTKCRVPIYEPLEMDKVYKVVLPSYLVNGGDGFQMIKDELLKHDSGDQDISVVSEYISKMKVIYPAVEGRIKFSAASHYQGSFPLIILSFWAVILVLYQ
Kind of assay: Ecto-5′-nucleotidase inhibition assay (capillary electrophoresis), rat enzyme. Type of assay: biochemical. The settings on record: for inhibition at 100 µM: compound at 0.1 mM, read-out: r-e5′NT percentage inhibition ± s.e.m.; for inhibition at 100 µM / IC50: mean ± s.e.m., n = 3; for inhibitory potential toward r-e5′NT after initial screening: initial screening at 0.1 mM; for IC50: substrate AMP 500 µM. The protocol:
as §1, §2, §3

Molecules are shown by their SMILES.

As usually defined, the inhibition is how much of the control response was suppressed. As for `CC(=O)c1sc(N/N=C/c2ccco2)nc1C` [3c, (E)-1-(2-(2-(furan-2-ylmethylene)hydrazinyl)-4-methylthiazol-5-yl)ethanone], at h-e5′NT, the inhibition at 100 µM is 38.1 ± 5.47% and the “inhibitory potential toward h-e5′NT after initial screening” value is on record as “no inhibitory potential”. Moreover, on r-e5′NT, the inhibition at 100 µM turned out to be 15.3 ± 2.78% and the “inhibitory potential toward r-e5′NT after initial screening” value is “no inhibitory potential”.
Take `CC(=O)c1sc(N/N=C/c2ccc(C)o2)nc1C` [3d, (E)-1-(4-methyl-2-(2-((5-methylfuran-2-yl)methylene)hydrazinyl)thiazol-5-yl)ethanone]: at h-e5′NT, the inhibition at 100 µM is 43.6 ± 1.18% and the “inhibitory potential toward h-e5′NT after initial screening” value is listed as “no inhibitory potential”. Also, at r-e5′NT, the inhibition at 100 µM came to 12.3 ± 3.91% and the “inhibitory potential toward r-e5′NT after initial screening” value was “no inhibitory potential”.
The IC50 is the concentration that gives 50% inhibition. Low readings indicate higher potency, high ones lower potency. Consider `CC(=O)c1sc(N/N=C/c2ccc[nH]2)nc1C` [3e, (E)-1-(2-(2-((1H-pyrrol-2-yl)methylene)hydrazinyl)-4-methylthiazol-5-yl)ethanone], for which, on h-e5′NT, the IC50 came to 3.36 ± 0.12 µM. Moreover, at r-e5′NT, the inhibition at 100 µM is 10.8 ± 4.25%.
For the molecule `NS(=O)(=O)O` [sulfamic acid, reference compound], the IC50 came to 42.1 ± 7.8 µM on h-e5′NT and 77.3 ± 7.01 µM at r-e5′NT.
Turning to `CC(=O)c1sc(N/N=C/c2cccnc2)nc1C` [3a, (E)-1-(4-methyl-2-(2-(pyridin-3-ylmethylene)hydrazinyl)thiazol-5-yl)ethanone], the results for the IC50 against h-e5′NT and at r-e5′NT were 0.32 ± 0.03 µM and 7.81 ± 0.89 µM, respectively. Further, the “potency against h-e5′NT relative to r-e5′NT” value at h-e5′NT (ratio of IC50 r-e5′NT / h-e5′NT) is given as 24 fold. Besides, the “inhibition against h-e5′NT compared with positive control sulfamic acid” value on h-e5′NT (ratio of IC50 sulfamic acid / compound) stood at 132 fold.
Take `CC(=O)c1sc(N/N=C/c2ccc(N(C)C)cc2)nc1C` [3b, (E)-1-(2-(2-(4-(dimethylamino)benzylidene)hydrazinyl)-4-methylthiazol-5-yl)ethanone]: the half-maximal inhibitory concentration (IC50) against h-e5′NT was 0.56 ± 0.07 µM; against r-e5′NT it was 10.1 ± 0.58 µM.
In turn, `CC(=O)c1sc(N/N=C/c2cc3ccccc3[nH]2)nc1C` [3f, (E)-1-(2-(2-((1H-indol-2-yl)methylene)hydrazinyl)-4-methylthiazol-5-yl)ethanone] yielded an IC50 at h-e5′NT of 6.19 ± 0.32 µM. Also, the inhibition at 100 µM at r-e5′NT worked out at 32.7 ± 1.62%.

The values are drawn from paper PMC6170555, “Synthesis of novel (E)-1-(2-(2-(4(dimethylamino) benzylidene) hydrazinyl)-4-methylthiazol-5-yl)ethanone derivatives as ecto-5′-nucleotidase inhibitors” (Royal Society Open Science, 2018).
